Experimental data taken from patent publication USRE47267E1, “Pyridinecarboxamides as CXCR2 modulators” (Syntrix Biosystems, Inc., priority 2009, dated 2019).

Tests used:
CXCR2 [1] = molecular target: T1, CXCR2 (Homo sapiens (Human), UniProt P25025); assay: In vitro agonist activity: intracellular calcium release in human neutrophils in the absence of GROα; assay type: cell-based
neutrophil influx [2] = assay: Murine air pouch model of neutrophil chemotaxis (p.o.); assay type: in vivo, male CD-1 mice; settings: for total neutrophil counts in the blood: high doses, compared to control animals, data not shown
Description: Compounds 1 (SX-517) and 2 (SX-576) were also assayed in an in vivo air-pouch model of inflammation. SX-517 and SX-576 were able to attenuate neutrophil influx in the air-pouch model by about 50% at an oral dose of 0.2 and 0.05 mg/kg, respectively. […] More specifically, the procedure was performed by forming an air pouch on the backs of male CD-1 mice via the subcutaneous injection of air (2 mL). The next day, an additional subcutaneous injection of air (1.5 mL) was performed to reinflate the air pouch. The mice were given either vehicle control (Labrasol®) or test compound solubilized in Labrasol® via oral gavage. After 3 hours, either sterile phosphate buffered saline (PBS, 1 ml) or 2% carrageenan in sterile PBS (1 mL) was injected into the air pouch. After 4 hours, the mice were sedated with ketamine, and sacrificed by cervical dislocation. The exudate in the air pouch was collected by syringe, with an additional 2 mL wash with sterile PBS. The neutrophils were stained with trypan blue and counted on a hemocytometer under 20× magnification.

[3] = Crossover pharmacokinetic experiment in Beagle dogs; assay type: in vivo; settings: for plasma level: dosed to Beagle dogs without excipient, data not shown
Description: In this study, male Beagle dogs (n=5) were dosed intravenously on study day 1 with SX-576 in dimethylformamide/PEG400/saline (40:40:20) at a dose level of 5 mg/kg and a dose volume of 0.5 mL/kg. Blood samples were taken predose, and at time points 30, 60, 90, 120, 180, 360, 540 and 720 minutes. The blood was collected in tubes containing K2EDTA as an anticoagulant, and the tubes were centrifuged and the plasma fractions collected and frozen. After a one-week washout period, the same Beagle dogs were dosed orally with SX-576 in lipid based excipient Gelucire® 44/14 (Gattefosse) at a dose level of 5 mg/kg. Blood samples were then taken and plasma fractions collected as previously described. Prior to analysis, the plasma samples were thawed and diluted 1:3 into acetonitrile containing 1 μM of compound 153 as an internal standard. The resulting samples were centrifuged and the supernatant analyzed by LC-MS monitoring in multiple reaction monitoring mode. The samples were run concomitantly with a calibration curve of SX-576 in the same internal standard solution.
(§1) The lipid based excipient Gelucire® 44/14 is a self-emulsifying drug delivery system (SEDDS) that is able to solubilize both SX-517 and SX-576 into aqueous solutions via micellular formation. […] Therefore, lipid-based emulsifiers are important excipients for the oral delivery of SX-576.

Aqueous solubility = assay type: physicochemical
Text: as §1

CXCR2 [4] = molecular target: T1, CXCR2; assay: β-arrestin recruitment to CXCR2 (β-galactosidase fragment complementation, DiscoveRx); settings: for inhibition of β-arrestin recruitment following CXCR2 activation with IL-8: FIG. 2; for activity on β-arrestin complexation with CXCR2 in the absence of IL8: FIG. 3
CXCR2 [5] = molecular target: T1, CXCR2; assay: Wash-resistant inhibition of GROα-mediated intracellular calcium release in isolated human neutrophils; assay type: cell-based; settings: 0.4, 2 and 10 μM, 30 min incubation, washed; time points out to 6 hours; FIG. 1
neutrophil influx [6] = assay: Murine air pouch model of neutrophil chemotaxis (i.v.); assay type: in vivo, male CD-1 mice; settings: all tested dose levels 0.02, 0.05, 0.2 and 1.0 mg/kg, FIG. 6
Description: The procedure was performed by forming an air pouch on the backs of male CD-1 mice via the subcutaneous injection of air (2 mL). The next day, an additional subcutaneous injection of air (1.5 mL) was performed to reinflate the air pouch. The mice were given either vehicle control (dimethylformamide/PEG400/saline) or test compound solubilized in vehicle via tail vein injection. After 30 minutes, either sterile phosphate buffered saline (PBS, 1 ml) or 2% carrageenan in sterile PBS (1 mL) was injected into the air pouch. After 4 hours, the mice were sedated with ketamine, and sacrificed by cervical dislocation. The exudate in the air pouch was collected by syringe, with an additional 2 mL wash with sterile PBS. The neutrophils were stained with trypan blue and counted on a hemocytometer under 20× magnification.

[7] = system: ozone-induced pulmonary inflammation; assay: Ozone rat model of pulmonary inflammation; assay type: in vivo, Sprague-Dawley rats; settings: 1 mg/kg i.v. at t=0, 5, 9 h, 1 ppm ozone 4 h
Description: Activity in this model of pulmonary inflammation would provide direct relevance towards the treatment of a number of pulmonary inflammatory diseases, including chronic obstructive pulmonary disease (COPD) and bronchopulmonary dysplasia (BPD). In this experiment, Sprague-Dawley rats (n=4 per cohort) were dosed intravenously at t=0 with either vehicle (negative and positive groups, dimethylformamide/PEG400/saline, 40:40:20) or SX-576 (1 mg/kg). The rats were then placed in air (negative group) or 1 ppm ozone (positive and SX-576 groups) for 4 hours. The rats were dosed again at t=5 and 9 hours. The rats were then sacrificed at t=24 hours, and the bronchoalveolar lavage fluid (BALF) was collected. The cells were spun down, stained with Wright-Giemsa and counted. In the negative groups, no neutrophils were observed when stained. As a measure of lung leakage/damage, protein levels were quantified in BALF by Bradford protein assay analysis.

CXCR2 [8] = molecular target: T1, CXCR2; assay: Inhibition of GROα-mediated intracellular calcium release in human neutrophils (FLIPR-3 Ca2+ mobilization assay); assay type: cell-based; settings: GROα 25 nM

T1 sequence (P25025 whole entry): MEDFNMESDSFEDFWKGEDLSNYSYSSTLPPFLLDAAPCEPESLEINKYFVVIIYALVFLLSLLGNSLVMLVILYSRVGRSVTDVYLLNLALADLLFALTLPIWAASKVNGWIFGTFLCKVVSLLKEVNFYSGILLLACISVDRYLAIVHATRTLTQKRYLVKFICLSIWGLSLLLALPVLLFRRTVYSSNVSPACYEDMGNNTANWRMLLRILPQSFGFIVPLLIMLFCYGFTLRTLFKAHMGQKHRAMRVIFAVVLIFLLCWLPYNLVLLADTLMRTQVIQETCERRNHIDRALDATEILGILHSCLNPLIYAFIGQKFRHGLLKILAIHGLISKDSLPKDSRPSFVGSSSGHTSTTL

total neutrophil counts in the blood (neutrophil influx [2])	plasma level [3]	aqueous solubility (Aqueous solubility)	inhibition of β-arrestin recruitment following CXCR2 activation with IL-8 (CXCR2 [4])	activity on β-arrestin complexation with CXCR2 in the absence of IL8 (CXCR2 [4])	IC50 (CXCR2 [8]) [nM]	SMILES	other results
not significantly changed	undetected	poor	inhibited arrestin recruitment	acted as inverse agonists		O=C(Nc1ccc(F)cc1)c1ccc(SCc2ccccc2B(O)O)nc1 [Compound 1, 6-(2-borono-2-yl-benzylsulfanyl)-N-(4-fluoro-phenyl)-nicotinamide]	agonist activity with respect to the release of intracellular calcium (CXCR2 [1]; listed as 1 (SX-517)): did not show agonist activity; agonist activity with respect to the release of intracellular calcium (CXCR2 [1]; listed as SX-517): did not exhibit any agonist activity; neutrophil influx (neutrophil influx [2]; 0.005 and 0.2 p.o., FIG. 4): decrease of neutrophil influx; neutrophil influx (neutrophil influx [2]; doses in excess of 10 mg/kg p.o., FIG. 4): increase in neutrophil influx
not significantly changed	undetected	poor	inhibited arrestin recruitment	acted as inverse agonists		O=C(Nc1ccc(F)cc1)c1ccc(SCc2cc(OC(F)(F)F)ccc2B(O)O)nc1 [Compound 2, 6-(2-boronic acid-5-trifluoromethoxy-benzylsulfanyl)-N-(4-fluoro-phenyl)-nicotinamide]	inhibition of GROα mediated intracellular calcium release after inhibitor washout (CXCR2 [5]): dose-dependent and wash-resistant inhibition; neutrophil influx (neutrophil influx [2]; 0.05 mg/kg p.o., FIG. 5): decrease of neutrophil influx; neutrophil influx (neutrophil influx [2]; doses in excess of 1 mg/kg p.o., FIG. 5): increase in neutrophil influx; neutrophil influx (neutrophil influx [6]): significantly attenuate neutrophil influx; influx of neutrophils into the lungs ([7]; BALF at 24 h, FIG. 7a): significantly decreased; influx of macrophages into the lungs ([7]; BALF at 24 h, FIG. 7b): significantly decreased; ozone-induced lung damage (protein levels in the BALF) ([7]; FIG. 7c): protected against ozone-induced lung damage; bioavailability following oral administration ([3]; Beagle dogs, 5 mg/kg oral in Gelucire 44/14): improved
					79	COc1ccc(B(O)O)c(CSc2ccc(C(=O)Nc3ccc(F)cc3)cn2)c1 [Compound 4, 6-(2-boronic acid-5-methoxy-benzylsulfanyl)-N-(4-fluoro-phenyl)-nicotinamide]	
					> 5000	Cc1nn(-c2ccccc2)nc1CSc1ccc(C(=O)Nc2ccc(F)cc2)cn1 [Compound 48]	
					> 5000	O=C(Nc1ccc(F)cc1)c1ccc(SC2CCOC2=O)nc1 (stereo not shown) [Compound 81]	
